Reference: patent US9120805B2, “Substituted pyrrolo[1,2-A]pyrazin-1-ones and pyrazolo[1,5-A]pyrazin-4-ones as inhibitors of tankyrase and poly(ADP-ribose)polymerase activity” (Merck Patent GmbH, priority 2012, dated 2015)

Legend:
[1] = biological target: T1, GST-tagged Tankyrase-1 (1023-1327 aa) (Homo sapiens, UniProt O95271); assay: Tankyrase 1 autoparsylation assay (HTRF enzyme assay); type: biochemical
T1 construct: GST-tagged Tankyrase-1 (1023-1327 aa)
Description: (§1) Biochemical Activity Testing of Tankyrase 1 and 2: Autoparsylation Assay
(§2) The autoparsylation assay is run in two steps: the enzymatic reaction in which GST-tagged Tankyrase-1, resp Tankyrase-2 transferred biotinylated ADP-ribose to itself from biotinylated NAD as co-substrate and the detection reaction where a time resolved FRET between cryptate labelled anti-GST bound to the GST tag of the enzyme and Xlent® labelled-streptavidin bound the biotin-parsylation residue is analysed. The autoparsylation activity was detectable directly via the increase in HTRF signal.
(§3) The autoparsylation assay is performed as 384-well HTRF® (Cisbio, Codolet, France) assay format in Greiner low volume nb 384-well microtiter plates and is used for high throughput screen. 250 nM GST-tagged Tankyrase-1 (1023-1327 aa), respectively about 250 nM GST-tagged Tankyrase-2 (873-1166 aa) and 5 μM bio-NAD (Biolog, Life science Inst., Bremen, Germany) as co-substrate are incubated in a total volume of 5 μl (50 mM HEPES, 4 mM Mg-chloride, 0.05% Pluronic F-68, 1.4 mM DTT, 0.5% DMSO, pH 7.7) in the absence or presence of the test compound (10 dilution concentrations) for 90 min at 30° C. The reaction is stopped by the addition of 1 μl 50 mM EDTA solution. 2 μl of the detection solution (1.6 μM SA-Xlent® (Cisbio, Codolet, France), 7.4 nM Anti-GST-K® (Eu-labelled anti-GST, Cisbio, Codolet, France) in 50 mM HEPES, 800 mM KF, 0.1% BSA, 20 mM EDTA, 0.1% CHAPS, pH 7.0) are added. After 1 h incubation at room temperature the HTRF is measured with an Envision multimode reader (Perkin Elmer LAS Germany GmbH) at excitation wavelength 340 nm (laser mode) and emission wavelengths 615 nm and 665 nm. The ratio of the emission signals is determined. The full value used is the inhibitor-free reaction. The pharmacological zero value used is XAV-939 (Tocris) in a final concentration of 5 μM. The inhibitory values (IC50) are determined using either the program Symyx Assay Explorer® or Condosseo® from GeneData.

[2] = biological target: T2, GST-tagged Tankyrase-2 (873-1166 aa) (Homo sapiens, UniProt Q9H2K2); assay: Tankyrase 2 autoparsylation assay (HTRF enzyme assay); type: biochemical
T2 construct: GST-tagged Tankyrase-2 (873-1166 aa)
Description: as §1, §2, §3

tankyrase 1/2 = assay: Cellular inhibition of Tankyrase: increase of Axin2 level in DLD1 cells (Luminex); type: cell-based; conditions: 24 hours, read-out: EC50 tankyrase 1/2 (cell assay)
Description: Measurement of Cellular Inhibition of Tankyrase
Since Tankyrases have been described to modulate cellular level of Axin2 (Huang et al., 2009; Nature) the increase of Axin2 level is used as read-out for determination of cellular inhibition of Tankyrases in a Luminex based assay.
Cells of the colon carcinoma cell line DLD1 are plated in 96 well plates with 1.5×10^4 cells per well. Next day, cells are treated with a serial dilution of test compound in seven steps as triplicates with a final DMSO concentration of 0.3%. After 24 hours, cells are lysed in lysis buffer (20 mM Tris/HCl pH 8.0, 150 mM NaCl, 1% NP40, 10% Glycerol) and lysates are cleared by centrifugation through a 96 well filter plate (0.65 μm). Axin2 protein is isolated from cell lysates by incubation with a monoclonal anti-Axin2 antibody (R&D Systems #MAB6078) that is bound to fluorescent carboxybeads. Then, bound Axin2 is specifically detected with a polyclonal anti-Axin2 antibody (Cell Signaling #2151) and an appropriate PE-fluorescent secondary antibody. The amount of isolated Axin2 protein is determined in a Luminex^200 machine (Luminex Corporation) according to the manufacturer's instruction by counting 100 events per well. Inhibition of Tankyrase by test compounds results in higher levels of Axin2 which directly correlates with an increase of detectable fluorescence. As controls cells are treated with solvent alone (neutral control) and with a Tankyrase reference inhibitor IWR-2 (3E-06 M) which refers as control for maximum increase of Axin2. For analysis, the obtained data are normalized against the untreated solvent control and fitted for determination of the EC50 values using the Assay Explorer software (Accelrys).

T1 sequence (O95271 1023-1327): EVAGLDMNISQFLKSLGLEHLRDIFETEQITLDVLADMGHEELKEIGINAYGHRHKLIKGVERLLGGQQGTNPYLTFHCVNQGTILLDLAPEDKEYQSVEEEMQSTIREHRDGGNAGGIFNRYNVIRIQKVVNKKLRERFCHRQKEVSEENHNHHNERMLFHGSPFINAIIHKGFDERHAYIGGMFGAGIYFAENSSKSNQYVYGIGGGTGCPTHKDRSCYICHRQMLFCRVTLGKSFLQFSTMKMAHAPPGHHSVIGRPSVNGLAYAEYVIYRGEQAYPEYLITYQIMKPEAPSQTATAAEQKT
T2 sequence (Q9H2K2 873-1166): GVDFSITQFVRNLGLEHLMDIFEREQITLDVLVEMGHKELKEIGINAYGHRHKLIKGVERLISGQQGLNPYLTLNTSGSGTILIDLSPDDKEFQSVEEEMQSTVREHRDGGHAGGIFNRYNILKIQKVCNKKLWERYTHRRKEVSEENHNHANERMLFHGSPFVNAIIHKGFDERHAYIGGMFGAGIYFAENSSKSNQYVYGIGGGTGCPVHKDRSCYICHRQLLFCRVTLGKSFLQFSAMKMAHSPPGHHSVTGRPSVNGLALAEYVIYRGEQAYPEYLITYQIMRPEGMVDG

Structure (SMILES)	IC50 [1]	IC50 [2]	EC50 (tankyrase 1/2)
C=C(CCCO)c1ccc(-c2cn3cc(F)cc3c(=O)[nH]2)cc1 (single isomer, unassigned) [Compound A74, 7-fluoro-3-[4-(4-hydroxy-1-methylene-butyl)-phenyl]-2H-pyrrolo[1,2-a]pyrazin-1-one]	< 300 nM	300 to 3000 nM	300 to 3000 nM
O=c1[nH]c(-c2ccccc2)cn2cccc12 [Compound A2, 3-phenyl-2H-pyrrolo[1,2-a]pyrazin-1-one]	300 to 3000 nM	300 to 3000 nM	
CC1(C)CCC(C)(C)c2cc(-c3cn4cccc4c(=O)[nH]3)ccc21 [Compound A5, 3-(5,5,8,8-tetramethyl-5,6,7,8-tetrahydro-naphthalen-2-yl)-2H-pyrrolo[1,2-a]pyrazin-1-one]	3000 to 50000 nM		
Cn1cc(-c2cn3cccc3c(=O)[nH]2)cn1 [Compound A14, 3-(1-methyl-1H-pyrazol-4-yl)-2H-pyrrolo[1,2-a]pyrazin-1-one]	300 to 3000 nM	300 to 3000 nM	
O=c1[nH]c(-c2ccc(OC(F)(F)F)cc2)cn2nccc12 [Compound A16, 6-(4-trifluoromethoxy-phenyl)-5H-pyrazolo[1,5-a]pyrazin-4-one]	300 to 3000 nM	3000 to 50000 nM	
O=c1[nH]c(-c2ccc(N3CCCC3)cc2)cn2nccc12 [Compound A17, 6-(4-pyrrolidin-1-yl-phenyl)-5H-pyrazolo[1,5-a]pyrazin-4-one]	< 300 nM	< 300 nM	300 to 3000 nM
O=c1[nH]c(-c2ccc(N3CCCC3)cc2)cn2nc(CO)cc12 [Compound A19, 2-hydroxymethyl-6-(4-pyrrolidin-1-yl-phenyl)-5H-pyrazolo[1,5-a]pyrazin-4-one]	< 300 nM	300 to 3000 nM	300 to 3000 nM
CC(C)Oc1ccc(-c2cn3nc(CO)cc3c(=O)[nH]2)cc1 [Compound A20, 2-hydroxymethyl-6-(4-isopropoxy-phenyl)-5H-pyrazolo[1,5-a]pyrazin-4-one]	300 to 3000 nM	3000 to 50000 nM	
Cc1nc(-c2ccc(-c3cn4nc(CO)cc4c(=O)[nH]3)cc2)no1 [Compound A21, 2-hydroxymethyl-6-[4-(5-methyl-[1,2,4]oxadiazol-3-yl)-phenyl]-5H-pyrazolo[1,5-a]pyrazin-4-one]	300 to 3000 nM	3000 to 50000 nM	
CC(C)n1cc(-c2cn3nc(CO)cc3c(=O)[nH]2)cn1 [Compound A22, 2-hydroxymethyl-6-(1-isopropyl-1H-pyrazol-4-yl)-5H-pyrazolo[1,5-a]pyrazin-4-one]	3000 to 50000 nM		
O=c1[nH]c(-c2ccc(Br)cc2)cn2cccc12 [Compound A24, 3-(4-bromo-phenyl)-2H-pyrrolo[1,2-a]pyrazin-1-one]	< 300 nM	< 300 nM	
COCCn1cc(-c2ccc(-c3cn4cccc4c(=O)[nH]3)cc2)cn1 [Compound A26, 3-{4-[1-(2-methoxy-ethyl)-1H-pyrazol-4-yl]-phenyl}-2H-pyrrolo[1,2-a]pyrazin-1-one]	< 300 nM	< 300 nM	300 to 3000 nM
O=c1[nH]c(-c2ccc(-c3cnn(CCN4CCCC4)c3)cc2)cn2cccc12 [Compound A27, 3-{4-[1-(2-pyrrolidin-1-yl-ethyl)-1H-pyrazol-4-yl]-phenyl}-2H-pyrrolo[1,2-a]pyrazin-1-one]	< 300 nM	< 300 nM	300 to 3000 nM
COC(=O)c1ccc(-c2cn3cccc3c(=O)[nH]2)cc1 [Compound A28, 4-(1-oxo-1,2-dihydro-pyrrolo[1,2-a]pyrazin-3-yl)-benzoic acid methyl ester]	< 300 nM	300 to 3000 nM	300 to 3000 nM
Cc1cc2c(=O)[nH]c(-c3ccc(C(C)(C)C)cc3)cn2n1 [Compound A30, 6-(4-tert-butyl-phenyl)-2-methyl-5H-pyrazolo[1,5-a]pyrazin-4-one]	< 300 nM	300 to 3000 nM	< 300 nM
O=c1[nH]c(-c2ccc(-c3cnn(CCOC4CCCCO4)c3)cc2)cn2cccc12 (stereo not drawn) [Compound A31, 3-(4-{1-[2-(tetrahydro-pyran-2-yloxy)-ethyl]-1H-pyrazol-4-yl}-phenyl)-2H-pyrrolo[1,2-a]pyrazin-1-one]	< 300 nM	300 to 3000 nM	
O=c1[nH]c(-c2ccc(-c3cnn(CCO)c3)cc2)cn2cccc12 [Compound A32, 3-{4-[1-(2-hydroxy-ethyl)-1H-pyrazol-4-yl]-phenyl}-2H-pyrrolo[1,2-a]pyrazin-1-one]	< 300 nM	< 300 nM	300 to 3000 nM
O=c1[nH]c(-c2ccc(OC(F)(F)F)cc2)cn2nc(CCl)cc12 [Compound A33, 2-chloromethyl-6-(4-trifluoromethoxy-phenyl)-5H-pyrazolo[1,5-a]pyrazin-4-one]	300 to 3000 nM		
Cc1cc2c(=O)[nH]c(-c3ccc(OC(F)(F)F)cc3)cn2n1 [Compound A34, 2-methyl-6-(4-trifluoromethoxy-phenyl)-5H-pyrazolo[1,5-a]pyrazin-4-one]	< 300 nM	300 to 3000 nM	300 to 3000 nM
O=c1[nH]c(-c2ccc(Br)cc2)cn2nc(CBr)cc12 [Compound A36, 2-bromomethyl-6-(4-bromo-phenyl)-5H-pyrazolo[1,5-a]pyrazin-4-one]	300 to 3000 nM	3000 to 50000 nM	
Cc1cc2c(=O)[nH]c(-c3cnn(C(C)(C)C)c3)cn2n1 [Compound A52, 2-methyl-6-(1-tert-butyl-1H-pyrazol-4-yl)-5H-pyrazolo[1,5-a]pyrazin-4-one]	300 to 3000 nM	3000 to 50000 nM	
CC(C)(C)c1ccc(-c2cn3nc(C(F)(F)F)cc3c(=O)[nH]2)cc1 [Compound A55, 6-(4-tert-butyl-phenyl)-2-trifluoromethyl-5H-pyrazolo[1,5-a]pyrazin-4-one]	< 300 nM		
O=c1[nH]c(-c2ccc(Br)cc2)cn2cc(F)cc12 [Compound A58, 3-(4-bromo-phenyl)-7-fluoro-2H-pyrrolo[1,2-a]pyrazin-1-one]	< 300 nM	< 300 nM	
CC(C)(O)c1ccc(-c2cn3cc(C#N)cc3c(=O)[nH]2)cc1 [Compound A62, 3-[4-(1-hydroxy-1-methyl-ethyl)-phenyl]-1-oxo-1,2-dihydro-pyrrolo[1,2-a]pyrazine-7-carbonitrile]			3000 to 50000 nM
CC(C)(C)c1ccc(-c2cn3nc(CF)cc3c(=O)[nH]2)cc1 [Compound A64, 6-(4-tert-butyl-phenyl)-2-fluoromethyl-5H-pyrazolo[1,5-a]pyrazin-4-one]	< 300 nM	300 to 3000 nM	300 to 3000 nM
CC(C)(C)c1ccc(-c2cn3nc(C(F)F)cc3c(=O)[nH]2)cc1 [Compound A66, 6-(4-tert-butyl-phenyl)-2-difluoromethyl-5H-pyrazolo[1,5-a]pyrazin-4-one]	< 300 nM	300 to 3000 nM	300 to 3000 nM
O=c1[nH]c(-c2ccc(Br)cc2)cn2nc(C(F)(F)F)cc12 [Compound A67, 6-(4-bromo-phenyl)-2-trifluoromethyl-5H-pyrazolo[1,5-a]pyrazin-4-one]	300 to 3000 nM		
CC(C)(O)c1ccc(-c2cn3nc(C(F)(F)F)cc3c(=O)[nH]2)cc1 [Compound A69, 6-[4-(1-hydroxy-1-methyl-ethyl)phenyl]-2-trifluoromethyl-5H-pyrazolo[1,5-a]pyrazin-4-one]	300 to 3000 nM	3000 to 50000 nM	3000 to 50000 nM
O=c1[nH]c(-c2ccc(C3CCNCC3)cc2)cn2cc(Cl)cc12 [Compound A78, 7-Chloro-3-(4-piperidin-4-yl-phenyl)-2H-pyrrolo[1,2-a]pyrazin-1-one]			300 to 3000 nM
